Measured values: article PMC12735872, “Development of ^18F/^11C-Labeled Pyrrolo-Pyridine/Pyrimidine LRRK2 Selective PET Radioligands” (Pharmaceuticals, 2025)
Like-named read-outs stand apart in the source and are kept apart here.

What was measured:
LRRK2 wild-type (WT) = LRRK2 wild-type (WT) (Homo sapiens, UniProt Q5S007); experiment: LRRK2 wild-type Lanthascreen; assay type: biochemical
LRRK2 G2019S = LRRK2 G2019S (Homo sapiens, UniProt Q5S007, G2019S); experiment: LRRK2 G2019S Lanthascreen; assay type: biochemical
Sequence of LRRK2 G2019S (Q5S007 whole entry G2019S): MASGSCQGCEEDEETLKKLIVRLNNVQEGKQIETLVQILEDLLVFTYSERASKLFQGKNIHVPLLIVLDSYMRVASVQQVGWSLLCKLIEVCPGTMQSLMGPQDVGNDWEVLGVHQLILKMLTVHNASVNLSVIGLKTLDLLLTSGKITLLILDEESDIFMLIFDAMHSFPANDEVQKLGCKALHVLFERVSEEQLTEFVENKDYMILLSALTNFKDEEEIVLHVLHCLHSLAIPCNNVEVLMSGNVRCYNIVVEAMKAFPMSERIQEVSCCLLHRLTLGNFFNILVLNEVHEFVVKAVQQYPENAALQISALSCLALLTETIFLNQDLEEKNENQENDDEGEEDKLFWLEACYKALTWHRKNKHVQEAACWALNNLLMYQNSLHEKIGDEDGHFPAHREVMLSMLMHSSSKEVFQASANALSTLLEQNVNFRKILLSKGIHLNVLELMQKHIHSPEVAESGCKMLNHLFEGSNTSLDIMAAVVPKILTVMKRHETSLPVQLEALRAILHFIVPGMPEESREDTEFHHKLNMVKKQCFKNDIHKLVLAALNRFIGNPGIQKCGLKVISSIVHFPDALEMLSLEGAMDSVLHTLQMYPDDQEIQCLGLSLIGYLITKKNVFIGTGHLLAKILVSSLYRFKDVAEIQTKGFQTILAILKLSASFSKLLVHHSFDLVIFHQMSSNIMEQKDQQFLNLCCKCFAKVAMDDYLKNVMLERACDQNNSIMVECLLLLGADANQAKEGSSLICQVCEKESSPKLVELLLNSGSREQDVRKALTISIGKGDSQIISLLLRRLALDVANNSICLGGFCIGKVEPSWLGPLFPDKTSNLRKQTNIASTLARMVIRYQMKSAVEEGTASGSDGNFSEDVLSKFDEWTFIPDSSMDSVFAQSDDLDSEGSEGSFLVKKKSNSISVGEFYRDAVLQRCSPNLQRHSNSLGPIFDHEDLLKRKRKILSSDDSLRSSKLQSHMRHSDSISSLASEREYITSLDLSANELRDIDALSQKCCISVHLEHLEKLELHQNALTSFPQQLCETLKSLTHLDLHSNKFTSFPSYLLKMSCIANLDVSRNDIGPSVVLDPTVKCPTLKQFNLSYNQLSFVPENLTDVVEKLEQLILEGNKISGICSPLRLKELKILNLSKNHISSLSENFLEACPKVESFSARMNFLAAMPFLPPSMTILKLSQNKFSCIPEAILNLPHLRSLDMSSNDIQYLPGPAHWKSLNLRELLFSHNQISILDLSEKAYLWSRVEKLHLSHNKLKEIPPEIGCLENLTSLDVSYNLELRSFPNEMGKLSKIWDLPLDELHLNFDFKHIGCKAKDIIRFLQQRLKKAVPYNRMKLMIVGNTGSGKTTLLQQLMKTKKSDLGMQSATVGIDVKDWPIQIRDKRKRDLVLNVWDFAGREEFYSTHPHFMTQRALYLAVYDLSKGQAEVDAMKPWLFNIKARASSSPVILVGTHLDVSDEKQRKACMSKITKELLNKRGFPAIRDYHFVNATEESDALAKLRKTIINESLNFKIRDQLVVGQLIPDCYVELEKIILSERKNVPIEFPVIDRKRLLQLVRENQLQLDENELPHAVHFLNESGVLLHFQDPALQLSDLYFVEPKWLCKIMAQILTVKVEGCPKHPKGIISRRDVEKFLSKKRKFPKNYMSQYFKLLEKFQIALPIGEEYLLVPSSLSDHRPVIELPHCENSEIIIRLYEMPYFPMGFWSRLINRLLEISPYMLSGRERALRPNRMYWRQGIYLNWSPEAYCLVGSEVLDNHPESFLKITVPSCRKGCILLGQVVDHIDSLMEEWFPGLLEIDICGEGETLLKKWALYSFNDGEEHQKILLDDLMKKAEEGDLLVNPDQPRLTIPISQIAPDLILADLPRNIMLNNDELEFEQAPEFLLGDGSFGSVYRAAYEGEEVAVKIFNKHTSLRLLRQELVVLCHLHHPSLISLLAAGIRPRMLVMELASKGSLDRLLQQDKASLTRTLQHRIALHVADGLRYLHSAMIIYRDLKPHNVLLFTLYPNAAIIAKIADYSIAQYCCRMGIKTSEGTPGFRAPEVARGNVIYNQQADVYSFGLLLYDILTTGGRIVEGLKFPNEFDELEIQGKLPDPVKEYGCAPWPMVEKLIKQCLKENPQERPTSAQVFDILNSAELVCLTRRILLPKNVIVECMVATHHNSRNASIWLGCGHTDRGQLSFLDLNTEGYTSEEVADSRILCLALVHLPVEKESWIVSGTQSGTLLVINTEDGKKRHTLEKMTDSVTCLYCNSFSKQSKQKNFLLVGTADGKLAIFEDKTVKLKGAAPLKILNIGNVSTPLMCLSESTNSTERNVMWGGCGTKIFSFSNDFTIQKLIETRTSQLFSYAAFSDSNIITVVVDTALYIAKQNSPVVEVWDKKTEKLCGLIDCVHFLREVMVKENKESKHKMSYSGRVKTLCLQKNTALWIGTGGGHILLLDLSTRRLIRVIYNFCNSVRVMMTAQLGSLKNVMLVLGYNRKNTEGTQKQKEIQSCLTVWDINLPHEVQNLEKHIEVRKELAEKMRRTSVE

MDR1 (P-gp) = experiment: MDR1-MDCK permeability and efflux ratio; assay type: in vitro ADME; details: dog, assay described in ref. 17; for Papp A→B: MDCK-MDR1; for efflux ratio: MDR1-MDCK, read-out: B:A/A:B (efflux ratio)
Description: Table 1 LRRK2 wild-type (WT) and G2019S Lanthascreen, MDR1-MDCK permeability (Papp A:B), and efflux ratio (B:A/A:B), free fractions in plasma (fp) and brain homogenate (fb) and PET Multi-Parameter Optimization (MPO) score of Compounds 1, 2, and 3. | column: Papp A:B ^2 (MDR1-MDCK) (cm/s × 10^−6); B:A/A:B ^2

[1] = Free fraction in plasma (fp); assay type: in vitro ADME; details: method ref. 18
Description: Table 1 LRRK2 wild-type (WT) and G2019S Lanthascreen, MDR1-MDCK permeability (Papp A:B), and efflux ratio (B:A/A:B), free fractions in plasma (fp) and brain homogenate (fb) and PET Multi-Parameter Optimization (MPO) score of Compounds 1, 2, and 3. | column: fp ^3 (%)

[2] = Free fraction in brain homogenate (fb); assay type: in vitro ADME; details: method ref. 18
Description: Table 1 LRRK2 wild-type (WT) and G2019S Lanthascreen, MDR1-MDCK permeability (Papp A:B), and efflux ratio (B:A/A:B), free fractions in plasma (fp) and brain homogenate (fb) and PET Multi-Parameter Optimization (MPO) score of Compounds 1, 2, and 3. | column: fb ^3 (%)

LRRK2 [3] = experiment: In vitro autoradiography, NHP brain slices; assay type: binding; details: cold compound 10 µM
Experimental: Whole brain hemispheres were sectioned into horizontal slices with a thickness of 100 µm using a Leica cryomacrocut system. The autoradiographic procedures followed the same protocols established in previous studies conducted in our laboratory. The whole-hemisphere sections of 100 micron thickness were incubated for 90 min at room temperature with their corresponding radiotracer (4 MBq/200 mL) in TRIS buffer (pH 7.4) containing sodium chloride (120 mM), potassium chloride (5 mM), calcium chloride (2 mM), and albumin (0.1% w/v). After incubation, sections were washed three times in the same buffer at room temperature for five minutes each, briefly dipped in ice-cold distilled water, dried, and then placed in the phosphor imaging plates. Binding density standards were prepared by serial dilution of the radioligand stock solution in the assay buffer. Readings were taken with the Fujifilm BAS-5000 (Fujifilm, Tokyo, Japan), while quantitative analysis was conducted with the Multi Gauge 3.2 image analysis software (Fujifilm, Tokyo, Japan). For blocking experiments, adjacent brain sections were co-incubated with LuAF66583 (0.1 µM or 10 µM). […] The thickness differed from human tissue (20 µm).

LRRK2 [4] = biological target: T1, LRRK2 (Homo sapiens, UniProt Q5S007); experiment: In vitro autoradiography, human whole-hemisphere brain slices; assay type: binding; details: human brain slices; cold compound 10 µM
T1 construct: Human brains without pathological findings were acquired from the National Institute of Forensic Medicine; from tissue; host or cells: human post-mortem control brain, whole-hemisphere sections (100 µm)
T1 sequence (Q5S007 whole entry): as the sequence (Q5S007 whole entry G2019S) above, with S2019G counted along it
Experimental: Human brains without pathological findings were acquired from the National Institute of Forensic Medicine at Karolinska Institutet in Stockholm, Sweden. These brains were obtained during forensic autopsies (designated as control brain) and were processed in a manner like previously described methods. […] The brain was removed, and its tissues were kept in −85 °C until the sectioning process. The whole brain hemispheric slices were subsequently maintained at −25 °C until the commencement of autoradiography procedures. […] The sectioning of the brain and the autoradiography experiments were performed at the Psychiatry section, Department of Neuroscience, Karolinska Institutet, Sweden.
Whole brain hemispheres were sectioned into horizontal slices with a thickness of 100 µm using a Leica cryomacrocut system. The autoradiographic procedures followed the same protocols established in previous studies conducted in our laboratory. The whole-hemisphere sections of 100 micron thickness were incubated for 90 min at room temperature with their corresponding radiotracer (4 MBq/200 mL) in TRIS buffer (pH 7.4) containing sodium chloride (120 mM), potassium chloride (5 mM), calcium chloride (2 mM), and albumin (0.1% w/v). After incubation, sections were washed three times in the same buffer at room temperature for five minutes each, briefly dipped in ice-cold distilled water, dried, and then placed in the phosphor imaging plates. Binding density standards were prepared by serial dilution of the radioligand stock solution in the assay buffer. Readings were taken with the Fujifilm BAS-5000 (Fujifilm, Tokyo, Japan), while quantitative analysis was conducted with the Multi Gauge 3.2 image analysis software (Fujifilm, Tokyo, Japan). For blocking experiments, adjacent brain sections were co-incubated with LuAF66583 (0.1 µM or 10 µM).

Sequence of LRRK2 wild-type (WT) (Q5S007 whole entry): as the sequence (Q5S007 whole entry G2019S) above, with S2019G counted along it

Row | Ki (LRRK2 wild-type (WT); assay described in ref. 16, read-out: LRRK2 Lanthascreen WT cKi) [nM] | Ki (LRRK2 G2019S; assay described in ref. 16, read-out: LRRK2 Lanthascreen G2019S cKi) [nM] | Papp A→B (MDR1 (P-gp)) [×10⁻⁶ cm/s] | efflux ratio (MDR1 (P-gp)) | fraction unbound [1] | fraction unbound [2] | Blocking of [^18F]1 binding (ARG) (LRRK2 [3]) | Blocking of [^18F]1 binding (ARG) (LRRK2 [4]) | Ki (LRRK2 wild-type (WT)) [nM] | Ki (LRRK2 G2019S) [nM] | Structure (SMILES)
1 | 0.7 | 1 | 31 | 0.66 | 0.38 | 0.13 | effectively blocked | effectively blocked |  |  | C[C@@H]1C[C@@H](F)CN1c1c(C#N)c2c(N)nccc2n1C [Compound 1, 4-Amino-2-((2R,4R)-4-fluoro-2-methylpyrrolidin-1-yl)-1-methyl-1H-pyrrolo[3,2-c]pyridine-3-carbonitrile]
2 |  |  | 17 | 0.8 | 0.04 | 0.012 | effectively blocked | effectively blocked | 0.14 | 0.28 | C[C@@H]1CCCN1c1c(C#N)c2c(N)nc(Nc3cnn(C)c3)nc2n1C [Compound 3, (R)-4-amino-7-methyl-2-((1-methyl-1H-pyrazol-4-yl)amino)-6-(2-methylpyrrolidin-1-yl)-7H-pyrrolo[2,3-d]pyrimidine-5-carbonitrile]
